Species on record: Rattus norvegicus
Experiment: Open TG-GATES - Regimen: Single
Format: toxicity, organism-based, Sprague-Dawley
Design: regimen Single, gender Male, age 6 weeks
Settings: in vivo, po, 100 mg/kg, route gavage, dose level Low; for APTT / Bas / Eos / Fbg / Hb / Ht / Lym / MCH / MCHC / MCV / Mono / Neu / PT / Plat / RBC / Ret / WBC: tissue Blood; for KIDNEY_L / KIDNEY_R / KIDNEY_TOTAL: tissue Kidney; for LIVER: tissue Liver; for A/G / ALP / ALT / AST / BUN / CRE / Ca / Cl / DBIL / GLC / IP / K / LDH / Na / PL / RALB / TBIL / TC / TG / TP / gamma-GTP: tissue Plasma

## CN(C)[C@@H]1C(O)=C(C(N)=O)C(=O)[C@@]2(O)C(O)=C3C(=O)c4c(O)cccc4[C@@](C)(O)[C@H]3C[C@@H]12 [TETRACYCLINE]
3 h
  TERMINAL_BW: 185.7 g
  APTT: 16.7 s
  Bas: 0%
  Eos: 0.8%
  Fbg: 197.8 mg/dL
  Hb: 12.8 g/dL
  Ht: 38.5%
  Lym: 84.2%
  MCH: 21.8 pg
  MCHC: 33.2%
  MCV: 65.7 fL
  Mono: 6.4%
  Neu: 9.2%
  PT: 12.1 s
  Plat: 98.5 x10_4/uL
  RBC: 586.6 x10_4/ul
  Ret: 9.8%
  WBC: 101.6 x10_2/uL
  KIDNEY_L: 0.9 g
  KIDNEY_R: 0.9 g
  KIDNEY_TOTAL: 1.9 g
  LIVER: 8.9 g
  A/G: 2.3
  ALP: 713.6 IU/L
  ALT: 40 IU/L
  AST: 69.4 IU/L
  BUN: 12 mg/dL
  CRE: 0.5 mg/dL
  Ca: 11.1 mg/dL
  Cl: 104 meq/L
  DBIL: 0.036 mg/dL
  GLC: 179.8 mg/dL
  IP: 10.7 mg/dL
  K: 4.9 meq/L
  LDH: 84.2 IU/L
  Na: 137.4 meq/L
  PL: 127.8 mg/dL
  RALB: 3.8 g/dL
  TBIL: 0.4 mg/dL
  TC: 73.8 mg/dL
  TG: 38 mg/dL
  TP: 5.4 g/dL
  gamma-GTP: 1.2 IU/L
6 h
  TERMINAL_BW: 184.5 g
  APTT: 16.5 s
  Bas: 0%
  Eos: 0.6%
  Fbg: 199.6 mg/dL
  Hb: 13.2 g/dL
  Ht: 39.9%
  Lym: 80.2%
  MCH: 21.9 pg
  MCHC: 33.2%
  MCV: 66 fL
  Mono: 5.2%
  Neu: 14.4%
  PT: 12.1 s
  Plat: 107 x10_4/uL
  RBC: 607.2 x10_4/ul
  Ret: 10.1%
  WBC: 95.2 x10_2/uL
  KIDNEY_L: 0.9 g
  KIDNEY_R: 0.9 g
  KIDNEY_TOTAL: 1.7 g
  LIVER: 8.3 g
  A/G: 2.2
  ALP: 880.4 IU/L
  ALT: 36.2 IU/L
  AST: 69.6 IU/L
  BUN: 12.2 mg/dL
  CRE: 0.4 mg/dL
  Ca: 10.8 mg/dL
  Cl: 106 meq/L
  DBIL: 0.02 mg/dL
  GLC: 175.6 mg/dL
  IP: 10.3 mg/dL
  K: 5.1 meq/L
  LDH: 85.2 IU/L
  Na: 137 meq/L
  PL: 139 mg/dL
  RALB: 3.6 g/dL
  TBIL: 0.3 mg/dL
  TC: 82.2 mg/dL
  TG: 32.4 mg/dL
  TP: 5.3 g/dL
  gamma-GTP: 1.6 IU/L
9 h
  TERMINAL_BW: 181.6 g
  APTT: 16.5 s
  Bas: 0%
  Eos: 0.4%
  Fbg: 210.6 mg/dL
  Hb: 12.9 g/dL
  Ht: 39.4%
  Lym: 81.8%
  MCH: 21.8 pg
  MCHC: 32.8%
  MCV: 66.4 fL
  Mono: 5.8%
  Neu: 11.6%
  PT: 12.2 s
  Plat: 102.3 x10_4/uL
  RBC: 592.8 x10_4/ul
  Ret: 9.5%
  WBC: 93.6 x10_2/uL
  KIDNEY_L: 0.9 g
  KIDNEY_R: 0.9 g
  KIDNEY_TOTAL: 1.7 g
  LIVER: 7.5 g
  A/G: 2.2
  ALP: 861 IU/L
  ALT: 32.8 IU/L
  AST: 64 IU/L
  BUN: 13.2 mg/dL
  CRE: 0.4 mg/dL
  Ca: 10.5 mg/dL
  Cl: 105.8 meq/L
  DBIL: 0.022 mg/dL
  GLC: 176.8 mg/dL
  IP: 10.5 mg/dL
  K: 5.1 meq/L
  LDH: 93.8 IU/L
  Na: 138.4 meq/L
  PL: 126.6 mg/dL
  RALB: 3.8 g/dL
  TBIL: 0.3 mg/dL
  TC: 73.4 mg/dL
  TG: 26 mg/dL
  TP: 5.5 g/dL
  gamma-GTP: 1.8 IU/L
24 h
  TERMINAL_BW: 196.8 g
  APTT: 16.4 s
  Bas: 0%
  Eos: 0.5%
  Fbg: 218 mg/dL
  Hb: 13.5 g/dL
  Ht: 41.6%
  Lym: 84%
  MCH: 22 pg
  MCHC: 32.4%
  MCV: 67.9 fL
  Mono: 8.5%
  Neu: 7.2%
  PT: 11.9 s
  Plat: 105.1 x10_4/uL
  RBC: 614 x10_4/ul
  Ret: 10.3%
  WBC: 88.6 x10_2/uL
  KIDNEY_L: 0.9 g
  KIDNEY_R: 0.9 g
  KIDNEY_TOTAL: 1.8 g
  LIVER: 9.1 g
  A/G: 2.1
  ALP: 914 IU/L
  ALT: 34 IU/L
  AST: 64.8 IU/L
  BUN: 17.8 mg/dL
  CRE: 0.5 mg/dL
  Ca: 11.4 mg/dL
  Cl: 104.8 meq/L
  DBIL: 0 mg/dL
  GLC: 188.5 mg/dL
  IP: 10 mg/dL
  K: 5.2 meq/L
  LDH: 97.8 IU/L
  Na: 140.8 meq/L
  PL: 154.2 mg/dL
  RALB: 3.9 g/dL
  TBIL: 0.3 mg/dL
  TC: 86.5 mg/dL
  TG: 66.2 mg/dL
  TP: 5.8 g/dL
  gamma-GTP: 1 IU/L

From ChEMBL document CHEMBL3885861, “Open TG-GATES”
